pIC50: −log10 of the molar value. Where a name gives a salt, the structure may show the parent alone. A value given as a limit tells only on which side of the number the result lay.

This note sets out measurements from US11407767B2, “Heterocyclyl substituted pyrrolopyridines that are inhibitors of the CDK12 kinase” (The University of Nottingham, priority 2017, dated 2022).

Sequence of CDK12/CycK (Q9NYV4 whole entry): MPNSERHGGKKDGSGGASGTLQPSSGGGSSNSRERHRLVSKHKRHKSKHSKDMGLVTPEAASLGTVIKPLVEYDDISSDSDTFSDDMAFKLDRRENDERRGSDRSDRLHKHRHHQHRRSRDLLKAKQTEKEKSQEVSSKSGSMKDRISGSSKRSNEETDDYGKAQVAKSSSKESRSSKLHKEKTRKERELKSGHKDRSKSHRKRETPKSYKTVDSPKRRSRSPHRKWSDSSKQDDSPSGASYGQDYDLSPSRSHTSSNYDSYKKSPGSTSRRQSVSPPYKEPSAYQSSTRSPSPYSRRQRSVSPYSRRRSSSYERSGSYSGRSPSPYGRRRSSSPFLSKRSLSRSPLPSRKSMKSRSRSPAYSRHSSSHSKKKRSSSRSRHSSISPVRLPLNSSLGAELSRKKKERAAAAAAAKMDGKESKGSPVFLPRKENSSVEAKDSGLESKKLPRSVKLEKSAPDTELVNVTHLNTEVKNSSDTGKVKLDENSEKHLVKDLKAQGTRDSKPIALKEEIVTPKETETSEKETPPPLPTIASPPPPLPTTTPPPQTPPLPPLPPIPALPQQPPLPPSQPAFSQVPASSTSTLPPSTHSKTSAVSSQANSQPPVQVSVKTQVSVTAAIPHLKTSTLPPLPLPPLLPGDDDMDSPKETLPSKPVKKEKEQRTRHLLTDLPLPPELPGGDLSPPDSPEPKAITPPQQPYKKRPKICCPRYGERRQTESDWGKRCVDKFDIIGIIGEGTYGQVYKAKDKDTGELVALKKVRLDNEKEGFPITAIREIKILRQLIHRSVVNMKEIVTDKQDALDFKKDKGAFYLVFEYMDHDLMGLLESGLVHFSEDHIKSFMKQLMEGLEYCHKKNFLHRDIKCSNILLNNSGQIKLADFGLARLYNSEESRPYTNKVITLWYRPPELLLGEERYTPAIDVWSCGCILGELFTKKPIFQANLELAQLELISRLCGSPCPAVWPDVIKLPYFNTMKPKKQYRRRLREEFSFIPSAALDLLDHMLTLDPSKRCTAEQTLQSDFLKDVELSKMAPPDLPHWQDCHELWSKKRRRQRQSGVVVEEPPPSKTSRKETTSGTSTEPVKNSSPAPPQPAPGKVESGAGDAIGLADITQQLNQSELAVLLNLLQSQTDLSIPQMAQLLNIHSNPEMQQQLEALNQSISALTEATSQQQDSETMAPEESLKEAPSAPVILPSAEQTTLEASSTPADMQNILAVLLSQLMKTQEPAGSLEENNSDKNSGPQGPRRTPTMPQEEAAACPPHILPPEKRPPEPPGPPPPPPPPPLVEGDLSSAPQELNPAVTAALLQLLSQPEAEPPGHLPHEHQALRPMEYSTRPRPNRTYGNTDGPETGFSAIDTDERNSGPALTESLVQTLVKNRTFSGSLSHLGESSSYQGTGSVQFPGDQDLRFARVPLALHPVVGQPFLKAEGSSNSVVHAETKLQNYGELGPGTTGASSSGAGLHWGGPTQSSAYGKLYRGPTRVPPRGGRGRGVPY
Sequence of CDK12/CycK (O75909 whole entry partner): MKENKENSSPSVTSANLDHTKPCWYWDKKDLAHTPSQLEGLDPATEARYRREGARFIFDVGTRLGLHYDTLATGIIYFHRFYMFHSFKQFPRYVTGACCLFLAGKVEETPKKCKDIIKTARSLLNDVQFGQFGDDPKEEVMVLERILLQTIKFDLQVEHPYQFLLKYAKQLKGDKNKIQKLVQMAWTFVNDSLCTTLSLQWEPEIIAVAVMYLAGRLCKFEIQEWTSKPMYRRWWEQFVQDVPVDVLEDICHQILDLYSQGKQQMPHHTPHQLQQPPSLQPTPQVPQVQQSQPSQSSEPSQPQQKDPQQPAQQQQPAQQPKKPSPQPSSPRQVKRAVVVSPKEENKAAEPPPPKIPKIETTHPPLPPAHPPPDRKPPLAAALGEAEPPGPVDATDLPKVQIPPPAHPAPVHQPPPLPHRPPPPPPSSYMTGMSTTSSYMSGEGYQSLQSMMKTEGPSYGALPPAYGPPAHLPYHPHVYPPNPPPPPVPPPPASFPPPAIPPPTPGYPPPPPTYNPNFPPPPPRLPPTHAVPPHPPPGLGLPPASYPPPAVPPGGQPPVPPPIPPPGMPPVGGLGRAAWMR

This assay has as its target CDK12/CycK (Homo sapiens, UniProt Q9NYV4). Nature of the assay: Inhibition of CDK12 (ADP-Glo kinase assay). As to conditions: 60 nM CDK12/CycK, 30 minutes pre-incubation, 1 μM ATP, 0.5 μM RBER-IRStide substrate, 1 h at 25° C., read-out: CDK12/cyclin K IC50. It is filed as biochemical. Put shortly:
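Compounds pre-incubated 30 min with 60 nM CDK12/CycK in HEPES pH 7.5 buffer with Mg2+/Mn2+, 1% DMSO final. Reaction started with 1 μM ATP and 0.5 μM RBER-IRStide, run 1 h at 25 °C; ADP-Glo luminescence, no-kinase blank subtracted, IC50 from sigmoidal fit of % inhibition.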
Regarding `C=CC(=O)Nc1ccc(C(=O)N2CC[C@H](c3cc4c(-c5cnn6ncccc56)ccnc4[nH]3)C2)cc1` [Example 150], the pIC50 was > 7.00.

Take `C=CC(=O)NCC(=O)N1CCC(c2cc3c(-c4cnn5ncccc45)ccnc3[nH]2)C1` (stereo not shown) [Example 152, N-(2-Oxo-2-(3-(4-(pyrazolo[1,5-b]pyridazin-3-yl)-1H-pyrrolo[2,3-b]pyridin-2-yl)pyrrolidin-1-yl)ethyl)acrylamide]: the pIC50 is > 7.00. The result for `C=CC(=O)N1CCC[C@H]1C(=O)N1CCC(c2cc3c(-c4cnn5ncccc45)ccnc3[nH]2)C1` (stereo partly drawn) [Example 153, 1-((2S)-2-(3-(4-(Pyrazolo[1,5-b]pyridazin-3-yl)-1H-pyrrolo[2,3-b]pyridin-2-yl)pyrrolidine-1-carbonyl)pyrrolidin-1-yl)prop-2-en-1-one] reads > 7.00; that for `C=CC(=O)N1CCC[C@@H]1C(=O)N1CCC(c2cc3c(-c4cnn5ncccc45)ccnc3[nH]2)C1` (stereo partly drawn) [Example 154, 1-((2R)-2-(3-(4-(Pyrazolo[1,5-b]pyridazin-3-yl)-1H-pyrrolo[2,3-b]pyridin-2-yl)pyrrolidine-1-carbonyl)pyrrolidin-1-yl)prop-2-en-1-one], > 7.00; that for `O=C([C@@H]1CCCN1C(=O)CCl)N1CCC(c2cc3c(-c4cnn5ncccc45)ccnc3[nH]2)C1` (stereo partly drawn) [Example 155, 2-Chloro-1-((2S)-2-(3-(4-(pyrazolo[1,5-b]pyridazin-3-yl)-1H-pyrrolo[2,3-b]pyridin-2-yl)pyrrolidine-1-carbonyl)pyrrolidin-1-yl)ethan-1-one], > 7.00. The result for `O=C(CCl)NCC(=O)N1CCC(c2cc3c(-c4cnn5ncccc45)ccnc3[nH]2)C1` (stereo not shown) [Example 157, 2-Chloro-N-(2-oxo-2-(3-(4-(pyrazolo[1,5-b]pyridazin-3-yl)-1H-pyrrolo[2,3-b]pyridin-2-yl)pyrrolidin-1-yl)ethyl)acetamide] reads > 7.00; that for `O=C(CCl)N1CCC(C(=O)N2CCC(c3cc4c(-c5cnn6ncccc56)ccnc4[nH]3)C2)CC1` (stereo not shown) [Example 158, 2-Chloro-1-(4-(3-(4-(pyrazolo[1,5-b]pyridazin-3-yl)-1H-pyrrolo[2,3-b]pyridin-2-yl)pyrrolidine-1-carbonyl)piperidin-1-yl)ethan-1-one], > 7.00; that for `C=CC(=O)N1CCC[C@H]1C(=O)N1CC[C@H](c2cc3c(-c4cnn5ncccc45)ccnc3[nH]2)C1` [Example 162, 1-((S)-2-((S)-3-(4-(Pyrazolo[1,5-b]pyridazin-3-yl)-1H-pyrrolo[2,3-b]pyridin-2-yl)pyrrolidine-1-carbonyl)pyrrolidin-1-yl)prop-2-en-1-one], > 7.00. The result for `COCCC(=O)Nc1ccccc1C(=O)N1CCC(c2cc3c(-c4cnn5ncccc45)ccnc3[nH]2)C1` (stereo not shown) [Example 163, 3-Methoxy-N-(2-(3-(4-(pyrazolo[1,5-b]pyridazin-3-yl)-1H-pyrrolo[2,3-b]pyridin-2-yl)pyrrolidine-1-carbonyl)phenyl)propanamide Formate Salt] reads > 7.00; that for `C=CC(=O)N1CCOC[C@H]1C(=O)NCCc1cc2c(-c3cnn4ncccc34)ccnc2[nH]1` [Example 165, (S)-4-Acryloyl-N-(2-(4-(pyrazolo[1,5-b]pyridazin-3-yl)-1H-pyrrolo[2,3-b]pyridin-2-yl)ethyl)morpholine-3-carboxamide], > 7.00. Regarding `O=C(NCCc1cc2c(-c3cnn4ncccc34)ccnc2[nH]1)[C@@H]1CCCN1C(=O)C1=CCCC1` [Example 166, (S)-1-(Cyclopent-1-ene-1-carbonyl)-N-(2-(4-(pyrazolo[1,5-b]pyridazin-3-yl)-1H-pyrrolo[2,3-b]pyridin-2-yl)ethyl)pyrrolidine-2-carboxamide], the pIC50 was 6.00 to 7.00. Under `CN1CCC(OCc2cc3c(-c4cnn5ncccc45)ccnc3[nH]2)CC1` [Example 167, 3-(2-(((1-Methylpiperidin-4-yl)oxy)methyl)-1H-pyrrolo[2,3-b]pyridin-4-yl)pyrazolo[1,5-b]pyridazine diformate] stands 4.52 to 6.00; under `CN(C)CCOCc1cc2c(-c3cnn4ncccc34)ccnc2[nH]1` [Example 168, N,N-Dimethyl-2-((4-(pyrazolo[1,5-b]pyridazin-3-yl)-1H-pyrrolo[2,3-b]pyridin-2-yl)methoxy)ethan-1-amine Formate], 4.52 to 6.00; under `O=C(CCl)Nc1ccccc1C(=O)N1CCC(c2cc3c(-c4cnn5ncccc45)ccnc3[nH]2)C1` (stereo not shown) [Example 169, 2-Chloro-N-(2-(3-(4-(pyrazolo[1,5-b]pyridazin-3-yl)-1H-pyrrolo[2,3-b]pyridin-2-yl)pyrrolidine-1-carbonyl)phenyl)acetamide], > 7.00. Under `CCC(=O)Nc1cccc(C(=O)N2CCC(c3cc4c(-c5cnn6ncccc56)ccnc4[nH]3)C2)c1` (stereo not shown) [Example 173, N-(3-(3-(4-(Pyrazolo[1,5-b]pyridazin-3-yl)-1H-pyrrolo[2,3-b]pyridin-2-yl)pyrrolidine-1-carbonyl)phenyl)propionamide] stands > 7.00. Turning to `C=CC(=O)N1CC[C@H](C(=O)NCc2cc3c(-c4cnn5ncccc45)ccnc3[nH]2)C1` [Example 178, (S)-1-Acryloyl-N-((4-(pyrazolo[1,5-b]pyridazin-3-yl)-1H-pyrrolo[2,3-b]pyridin-2-yl)methyl)pyrrolidine-3-carboxamide], the pIC50 was 4.52 to 6.00. The result for `C=CC(=O)N1CC[C@@H](C(=O)NCc2cc3c(-c4cnn5ncccc45)ccnc3[nH]2)C1` [Example 179, (R)-1-Acryloyl-N-((4-(pyrazolo[1,5-b]pyridazin-3-yl)-1H-pyrrolo[2,3-b]pyridin-2-yl)methyl)pyrrolidine-3-carboxamide] reads 4.52 to 6.00; that for `C=CC(=O)Nc1cccc(C(=O)NCc2cc3c(-c4cnn5ncccc45)ccnc3[nH]2)c1` [Example 180, 3-Acrylamido-N-((4-(pyrazolo[1,5-b]pyridazin-3-yl)-1H-pyrrolo[2,3-b]pyridin-2-yl)methyl)benzamide], 6.00 to 7.00; that for `CN(C)C/C=C/C(=O)Nc1ccc(C(=O)NCc2cc3c(-c4cnn5ncccc45)ccnc3[nH]2)cc1` [Example 181], 6.00 to 7.00. The result for `C=CC(=O)N1CCC[C@@H]1C(=O)NCc1cc2c(-c3cnn4ncccc34)ccnc2[nH]1` [Example 182, (R)-1-Acryloyl-N-((4-(pyrazolo[1,5-b]pyridazin-3-yl)-1H-pyrrolo[2,3-b]pyridin-2-yl)methyl)pyrrolidine-2-carboxamide] reads 4.52 to 6.00; that for `C=CC(=O)N1CCC[C@H]1C(=O)NCc1cc2c(-c3cnn4ncccc34)ccnc2[nH]1` [Example 183, (S)-1-Acryloyl-N-((4-(pyrazolo[1,5-b]pyridazin-3-yl)-1H-pyrrolo[2,3-b]pyridin-2-yl)methyl)pyrrolidine-2-carboxamide], 4.52 to 6.00.

`C=CC(=O)N1CCC[C@@H](C(=O)NCc2cc3c(-c4cnn5ncccc45)ccnc3[nH]2)C1` [Example 184, (R)-1-Acryloyl-N-((4-(pyrazolo[1,5-b]pyridazin-3-yl)-1H-pyrrolo[2,3-b]pyridin-2-yl)methyl)piperidine-3-carboxamide]: the pIC50 was 4.52 to 6.00. The result for `C=CC(=O)Nc1ccc(C(=O)N(C)Cc2cc3c(-c4cnn5ncccc45)ccnc3[nH]2)cc1` [Example 185, 4-Acrylamido-N-methyl-N-((4-(pyrazolo[1,5-b]pyridazin-3-yl)-1H-pyrrolo[2,3-b]pyridin-2-yl)methyl)benzamide] reads > 7.00. The result for `C=CC(=O)N1CCC[C@H](C(=O)NCc2cc3c(-c4cnn5ncccc45)ccnc3[nH]2)C1` [Example 186, (S)-1-Acryloyl-N-((4-(pyrazolo[1,5-b]pyridazin-3-yl)-1H-pyrrolo[2,3-b]pyridin-2-yl)methyl)piperidine-3-carboxamide] reads 4.52 to 6.00; that for `C=CC(=O)N[C@H]1CC[C@@H](C(=O)NCc2cc3c(-c4cnn5ncccc45)ccnc3[nH]2)CC1` [Example 187, (1s,4s)-4-Acrylamido-N-((4-(pyrazolo[1,5-b]pyridazin-3-yl)-1H-pyrrolo[2,3-b]pyridin-2-yl)methyl)cyclohexane-1-carboxamide], 4.52 to 6.00; that for `CCC(=O)Nc1ccc(C(=O)NCc2cc3c(-c4cnn5ncccc45)ccnc3[nH]2)cc1` [Example 188, 4-Propionamido-N-((4-(pyrazolo[1,5-b]pyridazin-3-yl)-1H-pyrrolo[2,3-b]pyridin-2-yl)methyl)benzamide], 4.52 to 6.00. The result for `C=CC(=O)NCc1ccc(C(=O)NCc2cc3c(-c4cnn5ncccc45)ccnc3[nH]2)cc1` [Example 189, 4-(Acrylamidomethyl)-N-((4-(pyrazolo[1,5-b]pyridazin-3-yl)-1H-pyrrolo[2,3-b]pyridin-2-yl)methyl)benzamide] reads 4.52 to 6.00; that for `C=CC(=O)N(C)c1ccc(C(=O)NCc2cc3c(-c4cnn5ncccc45)ccnc3[nH]2)cc1` [Example 190, 4-(N-Methylacrylamido)-N-((4-(pyrazolo[1,5-b]pyridazin-3-yl)-1H-pyrrolo[2,3-b]pyridin-2-yl)methyl)benzamide], 6.00 to 7.00. With `C=CC(=O)N[C@H]1CC[C@H](C(=O)NCc2cc3c(-c4cnn5ncccc45)ccnc3[nH]2)CC1` [Example 191, (1r,4r)-4-Acrylamido-N-((4-(pyrazolo[1,5-b]pyridazin-3-yl)-1H-pyrrolo[2,3-b]pyridin-2-yl)methyl)cyclohexane-1-carboxamide], the pIC50 is 4.52 to 6.00.

On to `C=CC(=O)NCc1cccc(C(=O)NCc2cc3c(-c4cnn5ncccc45)ccnc3[nH]2)c1` [Example 192, 3-(Acrylamidomethyl)-N-((4-(pyrazolo[1,5-b]pyridazin-3-yl)-1H-pyrrolo[2,3-b]pyridin-2-yl)methyl)benzamide], for which the pIC50 is 4.52 to 6.00. Under `C=CC(=O)N1CCC(CC(=O)NCc2cc3c(-c4cnn5ncccc45)ccnc3[nH]2)CC1` [Example 193, 2-(1-Acryloylpiperidin-4-yl)-N-((4-(pyrazolo[1,5-b]pyridazin-3-yl)-1H-pyrrolo[2,3-b]pyridin-2-yl)methyl)acetamide] stands 4.52 to 6.00.
